For assay [1], the system named is DNA repair reporter vectors. Briefly: HCR of DNA repair reporter vectors treated with Cisplatin. It counts as cell-based. To be noted: reporter vectors treated with Cisplatin before transfection; effect more pronounced in XPA and XPF deficient cells.
Another assay has as its target T1, MGMT (Homo sapiens, UniProt P16455).
T1 construct: expressed in transfected cells; host or cells: TK6 lymphoblastoid cells (MGMT-deficient) complemented with MGMT (TK6+MGMT)
T1 sequence (P16455 1-207): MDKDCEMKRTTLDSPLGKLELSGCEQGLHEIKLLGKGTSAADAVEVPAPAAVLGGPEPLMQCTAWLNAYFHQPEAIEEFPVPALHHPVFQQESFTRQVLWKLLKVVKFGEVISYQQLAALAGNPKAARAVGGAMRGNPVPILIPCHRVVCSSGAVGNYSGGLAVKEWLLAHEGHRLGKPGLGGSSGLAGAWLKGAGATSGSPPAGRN
In words: O^6Methylguanine HCR (mPlum:T208C reporter), MGMT dependence of signal. The settings on record: TK6+MGMT cells incubated with compound before and after transfection. The class given is cell-based. As for the experimental part: FIG. 46 is a bar graph showing that the lack of signal is MGMT dependent. BnG stands for O^6-benzylguanine, which inhibits MGMT.
FIG. 44 is an illustration providing an assay for O^6Methylguanine HCR. An […] in fluorescence is expected when the reporter plasmid containing the mPlum:T208C mutation is treated with an agent that induces O^6MeG.
FIG. 46 is a bar graph showing that the lack of signal is MGMT dependent. Reporter expression has been normalized to that for TK6. As expected, the highest reporter expression is observed in MGMT deficient cells.

Assay [2] concerns fluorescent reporter plasmid DNA. In words: HCR of plasmids containing etheno lesions induced by CAA. The settings on record: plasmids treated with CAA; lymphoblastoid cell lines. The class given is cell-based, Human. The source says: Dose and cell line dependent inhibition of transcription in plasmids treated with CAA is shown at right.

Each structure is given as a SMILES string.

Take `N.N.[Cl][Pt][Cl]` [Cisplatin]: the fluorescent reporter expression entry in assay [1] is “suppresses florescent reporter expression in a dose dependent manner”.

Turning to `Nc1nc(OCc2ccccc2)c2nc[nH]c2n1` [O^6Benzylguanine, O^6-benzylguanine], the “reporter expression normalized to TK6” value at MGMT was “elevated reporter expression similar to that of the MGMT deficient TK6 cells”. Turning to `O=CCCl` [chloroacetaldehyde], in assay [2], the fluorescent reporter expression entry was “dose-dependent decrease in fluorescent reporter expression”.

Source of the values: patent US9938587B2 (priority 2011, dated 2018).
